In patent US9693556B2, “Herbicidal pyridazinone derivatives” (SYNGENTA LIMITED, priority 2011, dated 2017):

How the values were obtained:
Assay type in all cases: in vivo
Setaria faberi (SETFA) [1] = assay: Post-emergence herbicidal glasshouse test on Setaria faberi; settings: post-emergence; 1000 g/h; evaluated after 13 days
Method in brief: (§1)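 Pre-emergence treatment came one day after sowing, post-emergence treatment after eight days' growth; both used 1000 g/h in a 0.5% Tween 20 acetone/water vehicle. Percent damage, scored 1–5, was read 13 days later.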

[2] = test system: Amaranthus retoflexus (AMARE); assay: Post-emergence herbicidal glasshouse test on Amaranthus retoflexus; settings: post-emergence; 1000 g/h; evaluated after 13 days
Method in brief: as §1

[3] = test system: Echinochloa crus-galli (ECHCG); assay: Pre-emergence herbicidal glasshouse test on Echinochloa crus-galli; settings: pre-emergence; 1000 g/h; evaluated after 13 days
Method in brief: as §1

[4] = test system: Alopecurus myosuroides (ALOMY); assay: Post-emergence herbicidal glasshouse test on Alopecurus myosuroides; settings: post-emergence; 1000 g/h; evaluated after 13 days
Method in brief: as §1

Solanum nigrum (SOLNI) [5] = assay: Pre-emergence herbicidal glasshouse test on Solanum nigrum; settings: pre-emergence; 1000 g/h; evaluated after 13 days
Method in brief: as §1

[6] = test system: Echinochloa crus-galli (ECHCG); assay: Post-emergence herbicidal glasshouse test on Echinochloa crus-galli; settings: post-emergence; 1000 g/h; evaluated after 13 days
Method in brief: as §1

[7] = test system: Ipomoea hederacea (IPOHE); assay: Pre-emergence herbicidal glasshouse test on Ipomoea hederacea; settings: pre-emergence; 1000 g/h; evaluated after 13 days
Method in brief: as §1

[8] = test system: Ipomoea hederacea (IPOHE); assay: Post-emergence herbicidal glasshouse test on Ipomoea hederacea; settings: post-emergence; 1000 g/h; evaluated after 13 days
Method in brief: as §1

Setaria faberi (SETFA) [9] = assay: Pre-emergence herbicidal glasshouse test on Setaria faberi; settings: pre-emergence; 1000 g/h; evaluated after 13 days
Method in brief: as §1

[10] = test system: Alopecurus myosuroides (ALOMY); assay: Pre-emergence herbicidal glasshouse test on Alopecurus myosuroides; settings: pre-emergence; 1000 g/h; evaluated after 13 days
Method in brief: as §1

Solanum nigrum (SOLNI) [11] = assay: Post-emergence herbicidal glasshouse test on Solanum nigrum; settings: post-emergence; 1000 g/h; evaluated after 13 days
Method in brief: as §1

[12] = test system: Amaranthus retoflexus (AMARE); assay: Pre-emergence herbicidal glasshouse test on Amaranthus retoflexus; settings: pre-emergence; 1000 g/h; evaluated after 13 days
Method in brief: as §1

SMILES	POST Application SETFA herbicidal damage (five point scale) (Setaria faberi (SETFA) [1])	POST Application AMARE herbicidal damage (five point scale) [2]	PRE Application ECHCG herbicidal damage (five point scale) [3]	POST Application ALOMY herbicidal damage (five point scale) [4]	PRE Application SOLNI herbicidal damage (five point scale) (Solanum nigrum (SOLNI) [5])	POST Application ECHCG herbicidal damage (five point scale) [6]	PRE Application IPOHE herbicidal damage (five point scale) [7]	POST Application IPOHE herbicidal damage (five point scale) [8]	PRE Application SETFA herbicidal damage (five point scale) (Setaria faberi (SETFA) [9])	PRE Application ALOMY herbicidal damage (five point scale) [10]	POST Application SOLNI herbicidal damage (five point scale) (Solanum nigrum (SOLNI) [11])	PRE Application AMARE herbicidal damage (five point scale) [12]
Cn1ncc(-c2ccc(S(=O)(=O)Cc3ccccc3)cc2S(C)(=O)=O)c(O)c1=O [Compound 2.036]	5 (5=80-100% damage)	5 (5=80-100% damage)	5 (5=80-100% damage)	5 (5=80-100% damage)	5 (5=80-100% damage)	5 (5=80-100% damage)	5 (5=80-100% damage)	5 (5=80-100% damage)	5 (5=80-100% damage)	5 (5=80-100% damage)	5 (5=80-100% damage)	5 (5=80-100% damage)
Cn1ncc(-c2ccc(S(=O)(=O)N3CCOCC3)cc2S(C)(=O)=O)c(O)c1=O [Compound 2.037]	4 (4=60-79% damage)	5 (5=80-100% damage)	5 (5=80-100% damage)	3 (3=40-59% damage)	5 (5=80-100% damage)	5 (5=80-100% damage)	4 (4=60-79% damage)	5 (5=80-100% damage)	2 (2=20-39% damage)	3 (3=40-59% damage)	5 (5=80-100% damage)	5 (5=80-100% damage)
CC(C)N(C)S(=O)(=O)c1ccc(-c2cnn(C)c(=O)c2O)c(S(C)(=O)=O)c1 [Compound 2.038]	5 (5=80-100% damage)	5 (5=80-100% damage)	5 (5=80-100% damage)	4 (4=60-79% damage)	5 (5=80-100% damage)	5 (5=80-100% damage)	4 (4=60-79% damage)	4 (4=60-79% damage)	4 (4=60-79% damage)	5 (5=80-100% damage)	5 (5=80-100% damage)	5 (5=80-100% damage)
Cn1nc(N)c(-c2ccc(C(F)(F)F)cc2S(C)(=O)=O)c(O)c1=O [Compound 2.039]	5 (5=80-100% damage)	5 (5=80-100% damage)	5 (5=80-100% damage)	5 (5=80-100% damage)	5 (5=80-100% damage)	5 (5=80-100% damage)	5 (5=80-100% damage)	5 (5=80-100% damage)	5 (5=80-100% damage)	5 (5=80-100% damage)	5 (5=80-100% damage)	5 (5=80-100% damage)
COCc1ccc(-c2cnn(C)c(=O)c2O)c(S(C)(=O)=O)c1 [Compound 2.040]	5 (5=80-100% damage)	5 (5=80-100% damage)	5 (5=80-100% damage)	5 (5=80-100% damage)	5 (5=80-100% damage)	5 (5=80-100% damage)	3 (3=40-59% damage)	5 (5=80-100% damage)	4 (4=60-79% damage)	5 (5=80-100% damage)	5 (5=80-100% damage)	5 (5=80-100% damage)
COc1nn(C)c(=O)c(O)c1-c1ccc(C(F)(F)F)cc1S(C)(=O)=O [Compound 2.041]	5 (5=80-100% damage)	5 (5=80-100% damage)	5 (5=80-100% damage)	5 (5=80-100% damage)	5 (5=80-100% damage)	5 (5=80-100% damage)	5 (5=80-100% damage)	5 (5=80-100% damage)	5 (5=80-100% damage)	5 (5=80-100% damage)	5 (5=80-100% damage)	5 (5=80-100% damage)
CC(C)OCc1ccc(-c2cnn(C)c(=O)c2O)c(S(C)(=O)=O)c1 [Compound 2.043]	4 (4=60-79% damage)	5 (5=80-100% damage)	5 (5=80-100% damage)	3 (3=40-59% damage)	5 (5=80-100% damage)	5 (5=80-100% damage)	2 (2=20-39% damage)	5 (5=80-100% damage)	1 (1=0-19% damage)	3 (3=40-59% damage)	5 (5=80-100% damage)	5 (5=80-100% damage)
Cn1ncc(-c2ccc(C(F)(F)F)cc2S(=O)(=O)Cc2ccccc2)c(O)c1=O [Compound 2.047]	3 (3=40-59% damage)	5 (5=80-100% damage)	5 (5=80-100% damage)	3 (3=40-59% damage)	4 (4=60-79% damage)	5 (5=80-100% damage)	1 (1=0-19% damage)	4 (4=60-79% damage)	1 (1=0-19% damage)	1 (1=0-19% damage)	5 (5=80-100% damage)	2 (2=20-39% damage)
Cn1ncc(-c2ccc(C(F)(F)F)cc2S(=O)(=O)N2CCOCC2)c(O)c1=O [Compound 2.049]	1 (1=0-19% damage)	5 (5=80-100% damage)	5 (5=80-100% damage)	1 (1=0-19% damage)	5 (5=80-100% damage)	5 (5=80-100% damage)	4 (4=60-79% damage)	5 (5=80-100% damage)	2 (2=20-39% damage)	1 (1=0-19% damage)	5 (5=80-100% damage)	5 (5=80-100% damage)
